Laboratory results published in patent US8471024B2, “Tetrahydrofuropyridones” (priority 2008, dated 2013).

The compounds below were run against T1, PHD2 (Homo sapiens, UniProt Q9GZT9) (assay: Assay for HIF-PHD2 Catalytic Activity (time resolved fluorescence, VHL complex detection)). Details: FLAG-tagged full length PHD2; 0.2 μM 2-oxoglutarate, 0.5 μM HIF-1α peptide; read-out: PHD2 Binding Activity IC50.
T1 construct: FLAG-tagged full length PHD2expressed in and purified from baculovirus-infected Sf9 cells; FLAG; made in house; host or cells: baculovirus-infected Sf9 cells
Type: biochemical
Experimental: Assay for HIF-PHD2Catalytic Activity To each well of a 96-well plate was added 1 μL of test compound in DMSO and 20 μl of assay buffer (50 mM Tris pH 7.4/0.01% Tween-20/0.1 mg/ml bovine serum albumin/10 μM ferrous sulfate/1mM sodium ascorbate/20 μg/ml catalase) containing 0.15 μg/ml FLAG-tagged full length PHD2expressed in and purified from baculovirus-infected Sf9 cells. After a 30 min preincubation at room temperature, the enzymatic reactions were initiated by the addition of 4 μL of substrates (final concentrations of 0.2 μM 2-oxoglutarate and 0.5 μM HIF-1α peptide biotinyl-DLDLEMLAPYJPMDDDFQL).

T1 sequence (Q9GZT9 whole entry): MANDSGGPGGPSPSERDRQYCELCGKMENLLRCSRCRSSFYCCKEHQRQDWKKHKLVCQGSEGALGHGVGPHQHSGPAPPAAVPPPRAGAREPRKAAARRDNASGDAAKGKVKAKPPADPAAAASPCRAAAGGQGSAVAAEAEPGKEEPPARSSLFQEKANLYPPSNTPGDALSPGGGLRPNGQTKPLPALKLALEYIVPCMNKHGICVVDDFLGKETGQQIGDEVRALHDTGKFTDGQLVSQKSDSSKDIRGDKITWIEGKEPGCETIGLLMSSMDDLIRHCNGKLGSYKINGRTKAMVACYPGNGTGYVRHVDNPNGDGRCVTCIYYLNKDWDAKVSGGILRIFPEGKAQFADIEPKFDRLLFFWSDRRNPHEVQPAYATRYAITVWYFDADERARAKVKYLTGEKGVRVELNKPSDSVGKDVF

IC50, < 10 nM:
O=C(O)CNC(=O)c1c(O)c2c(n(Cc3ccc(-c4ccccc4C(F)(F)F)cc3)c1=O)COC2 [Example 33, N-[(4-hydroxy-2-oxo-1-{[2′-(trifluoromethyl)biphenyl-4-yl]methyl}-1,2,5,7-tetrahydrofuro[3,4-b]pyridin-3-yl}carbonyl)glycine]
COC(=O)c1ccccc1-c1ccc(Cn2c3c(c(O)c(C(=O)NCC(=O)O)c2=O)COC3)cc1 [Example 36, N-[(4-hydroxy-1-{[2′-(methoxycarbonyl)biphenyl-4-yl]methyl}-2-oxo-1,2,5,7-tetrahydrofuro[3,4,-b]pyridin-3-yl}carbonyl)glycine]
CC(C)Oc1ccc(Cn2c3c(c(O)c(C(=O)NCC(=O)O)c2=O)COC3)cc1 [Example 8, N-{[4-hydroxy-1-(4-isopropoxybenzyl)-2-oxo-1,2,5,7-tetrahydrofuro[3,4-b]pyridin-3-yl]carbonyl}glycine]
O=C(O)CNC(=O)c1c(O)c2c(n(Cc3cnc(-c4ccc(F)c(F)c4)cn3)c1=O)COC2 [Example 52, N-[(1-{[5-(3,4-difluorophenyl)pyrazin-2-yl]methyl}-4-hydroxy-2-oxo-1,2,5,7-tetrahydrofuro[3,4-b]pyridin-3-yl)carbonyl]glycine]
O=C(O)CNC(=O)c1c(O)c2c(n(Cc3ccc(-c4ccccc4-n4cccn4)cc3)c1=O)COC2 [Example 32, N-[(4-hydroxy-2-oxo-1-{[2′-(1H-pyrazol-yl)biphenyl-4-yl]methyl}-1,2,5,7-tetrahydrofuro[3,4-b]pyridin-3-yl}carbonyl)glycine]
O=C(O)CNC(=O)c1c(O)c2c(n(Cc3ccc(-c4ccc(F)cc4)cc3)c1=O)COC2 [Example 31]
O=C(O)CNC(=O)c1c(O)c2c(n(Cc3cnc(-c4ccccc4OC(F)(F)F)cn3)c1=O)COC2 [Example 54, N-[(1-{[5-(2-trifluoromethoxyphenyl)pyrazin-2-yl]methyl}-4-hydroxy-2-oxo-1,2,5,7-tetrahydrofuro[3,4-b]pyridin-3-yl)carbonyl]glycine]
O=C(O)CNC(=O)c1c(O)c2c(n(Cc3ccc(-c4ccccc4)nc3)c1=O)COC2 [Example 41, N-({4-hydroxy-2-oxo-1-[(6-phenylpyridin-3-yl)methyl]-1,2,5,7-tetrahydrofuro[3,4-b]pyridin-3-yl}carbonyl)glycine]
O=C(O)CNC(=O)c1c(O)c2c(n(Cc3ccc(-c4ccccc4Cl)cc3)c1=O)COC2 [Example 28]
O=C(O)CNC(=O)c1c(O)c2c(n(Cc3nc4ccccc4s3)c1=O)COC2 [Example 1, N-{[1-(1,3-benzothiazol-2-ylmethyl)-4-hydroxy-2-oxo-1,2,5,7-tetrahydrofuro[3,4-b]-pyridin-3-yl]carbonyl}glycine]
O=C(O)CNC(=O)c1c(O)c2c(n(Cc3ccc(OC(F)F)cc3)c1=O)COC2 [Example 17, N-{[1-(4-difluoromethoxybenzyl)-4-hydroxy-2-oxo-1,2,5,7-tetrahydrofuro[3,4-b]pyridin-3-yl]carbonyl}glycine]
O=C(O)CNC(=O)c1c(O)c2c(n(Cc3ccc(-c4ccc(F)cc4Cl)cc3F)c1=O)COC2 [Example 39]
O=C(O)CNC(=O)c1c(O)c2c(n(Cc3ccc(-c4ccccc4F)nc3)c1=O)COC2 [Example 49, N-[(1-{[6-(2-fluorophenyl)pyridin-3-yl]methyl}-4-hydroxy-2-oxo-1,2,5,7-tetrahydrofuro[3,4-b]pyridin-3-yl)carbonyl]glycine]
O=C(O)CNC(=O)c1c(O)c2c(n(Cc3ccc(Br)cc3F)c1=O)COC2 [Example 15, N-{[1-(4-bromo-2-fluorobenzyl)-4-hydroxy-2-oxo-1,2,5,7-tetrahydrofuro[3,4-b]pyridin-3-yl]carbonyl}glycine]
O=C(O)CNC(=O)c1c(O)c2c(n(Cc3cnc(Cl)cn3)c1=O)COC2 [Example 12, N-({1-[(5-chloropyrazin-2-yl)methyl]-4-hydroxy-2-oxo-1,2,5,7-tetrahydrofuro[3,4-b]pyridin-3-yl}carbonyl)glycine]
